Laboratory results reported in patent publication US8329420B2, “Screening method for a substance that binds to an intracellular region of TLR4” (Hiroshima University, priority 2006, dated 2012).

Tests used:
[1] = molecular target: T1, TLR4 (wild-type and point mutants, TLR4 C747A) (Homo sapiens, UniProt O00206, C747A); assay: NF-κB luciferase reporter assay in HEK293 cells expressing wild-type or mutant TLR4 after LPS stimulation; type: cell-based; parameters: expressed in transfected cells; host or cells: HEK293 (human embryonic kidney); conditions: 0, 30, 100, 300 nmol/L, 2 hr, then LPS 100 ng/mL 4 hr; HEK293; FL/RL ratio; only this mutant (FIG. 3)
T1 sequence (O00206 24-839 C747A): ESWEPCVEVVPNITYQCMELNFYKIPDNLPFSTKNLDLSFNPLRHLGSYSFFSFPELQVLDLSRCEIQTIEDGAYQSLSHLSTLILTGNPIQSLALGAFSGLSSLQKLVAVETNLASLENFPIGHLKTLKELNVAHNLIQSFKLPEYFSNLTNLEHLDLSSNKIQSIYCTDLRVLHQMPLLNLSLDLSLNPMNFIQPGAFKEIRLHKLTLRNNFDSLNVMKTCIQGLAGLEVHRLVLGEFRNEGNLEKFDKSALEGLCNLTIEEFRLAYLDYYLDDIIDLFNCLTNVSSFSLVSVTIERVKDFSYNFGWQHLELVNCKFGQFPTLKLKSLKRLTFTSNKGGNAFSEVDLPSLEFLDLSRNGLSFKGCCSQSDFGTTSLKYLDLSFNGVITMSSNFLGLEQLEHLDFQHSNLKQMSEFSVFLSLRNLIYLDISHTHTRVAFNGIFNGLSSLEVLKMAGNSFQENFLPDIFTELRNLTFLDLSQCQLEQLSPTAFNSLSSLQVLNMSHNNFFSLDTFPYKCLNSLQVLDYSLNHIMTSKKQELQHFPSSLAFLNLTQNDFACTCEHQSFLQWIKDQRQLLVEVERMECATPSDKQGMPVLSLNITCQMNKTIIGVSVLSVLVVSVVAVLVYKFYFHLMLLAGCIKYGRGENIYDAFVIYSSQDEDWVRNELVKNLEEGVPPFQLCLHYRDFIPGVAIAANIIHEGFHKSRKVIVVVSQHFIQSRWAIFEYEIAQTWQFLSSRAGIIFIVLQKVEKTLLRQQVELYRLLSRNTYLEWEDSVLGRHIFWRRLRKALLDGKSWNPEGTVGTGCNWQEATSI
Protocol: (§1) Human embryonic kidney-derived HEK293 was suspended in DMEM containing 10% FCS, plated in a 96 well plate at 2×10^4 cells/well and cultured overnight at 37° C., 5% CO2. The medium was changed to OPTI-MEM (Invitrogen, 50 μL/well) immediately before transfection. A plasmid encoding FLAG-TLR4WT or a mutant thereof (0CA-3CA, PH, 1KR-9KR) was added to 0.5 ng/well, and transfection was performed using a PLUS reagent (Invitrogen) or a LipofectAMINE reagent (Invitrogen) according to a conventional method. The cells were cultured at 37° C., 5% CO2 for 3 hr. After culture, DMEM containing 20% FCS was added to 100 μL/well, and the cells were further cultured overnight to give forced expression cells. As common DNAs, pNiFty (plasmid for NF-κB activation measurement, 15 ng/well), phRL-TK (internal standard plasmid, 15 ng/well), MD-2 plasmid (10 ng/well) and CD14 plasmid (10 ng/well) were transfected together with wild-type TLR4 and each mutant.
(§2) The next day of the transfection, the medium of the forced expression cells was changed to DMEM containing 1% FCS, compound A (ethyl (6R)-6-[N-(2-chloro-4-fluorophenyl)sulfamoyl]-1-cyclohexene-1-carboxylate), compound B (d-ethyl 6-[N-(2,4-difluorophenyl)sulfamoyl]-1-cyclohexene-1-carboxylate), compound C (ethyl 6-[N-(2-bromo-4-fluorophenyl)sulfamoyl]-1-cyclohexene-1-carboxylate), compound D (d-ethyl 6-[(2-chloro-4-fluorobenzyl)sulfonyl]-1-cyclohexene-1-carboxylate) were added to the final concentration of 0, 30, 100, 300 nmol/L and the cells were cultured for 2 hr at 37° C., 5% CO2. LPS was added to 100 ng/mL, and the cells were further cultured for 4 hr. After culture, the luminescence of luciferase was measured using Dual-Glo™ Luciferase Assay System (Promega). For the measurement, the luminescence of firefly luciferase (derived from FL, NF-κB activation) and renilla luciferase (RL, internal standard) was measured, and CPS (counts per second) of FL was amended by CPS of RL to give FL/RL ratio.

[2] = molecular target: T2, TLR4 (wild-type and point mutants, TLR4 C747A) (Homo sapiens, UniProt O00206); assay: as above; type: cell-based; parameters: expressed in transfected cells; host or cells: HEK293 (human embryonic kidney); conditions: concluded from reporter assay with TLR4 mutants, HEK293 (FIG. 3)
T2 sequence (O00206 24-839 C747A): as above
Protocol: as §1, §2

[3] = molecular target: T1, TLR4 (wild-type and point mutants, TLR4 C747A); assay: Binding of ^3H-compound A to FLAG-TLR4 wild-type and point mutants expressed in COS-7 cells (anti-FLAG immunoprecipitation, autoradiography); parameters: expressed in transfected cells; conditions: 100 nmol/L, 6 hr, COS-7 cells; only this mutant among 1CA-4CA, PH, 1KR-9KR (FIG. 2)
Source text: (§3) cDNA encoding TLR4 was obtained by a conventional method using PCR, and incorporated into expression vector pEFBos. Each point mutant was produced using QuikChange II Site-directed Mutagenesis Kit (manufactured by Stratagene). A mismatch corresponding to a mutation was introduced into both ends of a primer according to the manual of the kit. The produced primers are as follows (mutant introduction sites are underlined). Thereafter, a mutant was produced according to the manual and a competent cell was transformed therewith. Single colonies were picked up, a plasmid was prepared according to a conventional method and DNA sequence was confirmed to give a plasmid containing each mutant TLR4.
(§4) Escherichia coli was transformed with the produced plasmids, about 500-700 μg thereof was each purified using EndoFree (R) Plasmid Maxi Kit (Quiagen). […]
(§5) The immunoprecipitated was applied to SDS-PAGE to separate the protein, and the gel after migration was immersed in a blotting buffer for 15 min to remove SDS. […] The luminescence of the band was photographed on an X ray film, Kodak Biomax-MS, and the protein expression level was confirmed (FIG. 2; the upper panel). The photographed PVDF membrane was washed with PBS-T, photosensitized on imaging plate TR-2040 for 7 days, and the amount of ^3H bound to the expressed protein was measured using BAS-2500 (FUJIFILM Corporation).

[4] = molecular target: T2, TLR4 (wild-type and point mutants, TLR4 C747A); assay: as above; parameters: expressed in transfected cells; conditions: concluded from mutant binding, COS-7 cells (FIG. 2)
Source text: as §3, §4, §5

[5] = molecular target: T3, GST-TLR4 intracellular TIR domain fusion protein (Homo sapiens, UniProt O00206); assay: Pull-down of GST fusion protein-bound beads with ^3H-compound A, SDS-PAGE, autoradiography; type: binding; conditions: beads reacted at 4° C. overnight; autoradiography (FIG. 1B)
T3 construct: made in house; host or cells: Escherichia coli
T3 sequence (O00206 674-839): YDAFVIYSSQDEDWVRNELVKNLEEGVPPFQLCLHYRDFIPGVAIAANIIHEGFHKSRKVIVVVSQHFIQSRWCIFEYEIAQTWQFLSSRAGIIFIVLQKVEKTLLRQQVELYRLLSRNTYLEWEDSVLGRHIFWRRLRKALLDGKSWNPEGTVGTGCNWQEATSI
Protocol: (§6) Using the above-mentioned primer DNA and TAKARA Ex Taq and after first standing at 95° C. for 2 min in a thermal cycler, PCR was performed 30 cycles with 95° C. for 30 sec, at 55° C. for 30 sec and at 72° C. for 1 min as one cycle. Lastly, an elongation reaction was performed at 72° C. for 10 min. The amplified DNA fragment was cloned using a TA Cloning Kit (Invitrogen). The obtained plasmid vector was treated with a restriction enzyme and electrophoresed on agarose gel. The band was cleaved out using a Sephaglas B and Prep Kit (Amersham) and purified. This was inserted as an insert into vector plasmid pGEX-4T-1 (Amersham) using DNA ligation kit Ver.2 (TAKARA).
(§7) Escherichia coli was transformed with the completed plasmid, and cultured in LB medium containing ampicillin (10 mL) at 37° C. for 18 hr. Culture medium (2.4 mL) was inoculated to LB medium containing ampicillin (130 mL), and subjected to shaking culture. When OD600 became amount 0.9, isopropyl-β-D-thiogalactopyranoside (1 mol/L) was added (130 μL), and the mixture was cultivated at 30° C. for 4 hr. After cultivation, the cells were collected and 10 mL of Lysis Buffer (10 mmol/L Tris pH 7.5, […], 0.5% triton-X-100, 1 mmolp/L PMSF) was added. The cells were disrupted by ultrasonication and centrifuged. To the obtained supernatant was added Glutathione Sepharose 4B (Amersham, 300 μL), and the mixture was gently shaken at 4° C. for 60 min. After the reaction, GST fusion protein-bound beads were washed with TBS (Tris buffered saline, 50 mM Tris-HCl pH7.5, 150 mM NaCl) added with 0.1% Triton X-100.
(§8) The completed GST fusion protein-bound beads and ^3H-compound A (synthesized by Amersham) were reacted at 4° C. overnight. After the reaction, the beads were washed with 0.1% Triton X-100 added TBS, a sample buffer for 5% 2-mercaptoethanol (ME)-containing sodium dodecyl sulfate (SDS)-polyacrylamide gel electrophoresis (PAGE) was added, and the mixture was heated at 100° C. for 5-10 min. The mixture was centrifuged, the supernatant was separated as a labeled protein sample, and the protein was separated by SDS-PAGE. […]

[6] = molecular target: T4, GST-TLR2 intracellular TIR domain fusion protein (Homo sapiens, UniProt O60603); assay: as above; type: binding; conditions: beads reacted at 4° C. overnight; autoradiography (FIG. 1B)
T4 construct: GST and TIR domain of TLR2; made in house; host or cells: Escherichia coli
T4 sequence (O60603 639-782 limits assumed): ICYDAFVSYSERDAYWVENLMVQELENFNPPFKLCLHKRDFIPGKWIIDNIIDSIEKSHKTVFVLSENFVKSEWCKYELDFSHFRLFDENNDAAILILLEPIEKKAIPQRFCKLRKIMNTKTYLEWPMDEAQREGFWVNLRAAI
Protocol: as §6, §7, §8

GST-TIRAP fusion protein = molecular target: T5, GST-TIRAP fusion protein (Homo sapiens, UniProt P58753); assay: as above; type: binding; conditions: beads reacted at 4° C. overnight; autoradiography (FIG. 1B)
T5 construct: made in house; host or cells: Escherichia coli
T5 sequence (P58753 1-235 isoform P58753-2): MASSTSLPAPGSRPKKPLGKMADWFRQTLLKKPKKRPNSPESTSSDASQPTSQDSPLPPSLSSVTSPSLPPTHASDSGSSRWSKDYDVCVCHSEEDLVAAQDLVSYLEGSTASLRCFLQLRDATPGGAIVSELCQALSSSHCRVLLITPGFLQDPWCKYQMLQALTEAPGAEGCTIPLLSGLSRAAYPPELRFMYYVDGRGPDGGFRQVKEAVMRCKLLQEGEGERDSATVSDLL
Protocol: as §6, §7, §8

Row | signal suppressing action when 747th cysteine of TLR4 mutated to alanine [1] | binding site in TLR4 through which the signal is suppressed [2] | binding amount of ^3H-compound A to TLR4 with 747th cysteine mutated to alanine [3] | binding site of compound A in TLR4 [4] | binding of ^3H-compound A to GST-TLR4 intracellular TIR domain fusion protein [5] | binding of ^3H-compound A to GST-TLR2 intracellular TIR domain fusion protein [6] | binding of ^3H-compound A to GST-TIRAP fusion protein (GST-TIRAP fusion protein) | Structure (SMILES)
1 | disappeared | selectively bind to the 747th cysteine | – | – | – | – | – | CCOC(=O)C1=CCCCC1S(=O)(=O)Cc1ccc(F)cc1Cl (stereo not drawn) [compound D, d-ethyl 6-[(2-chloro-4-fluorobenzyl)sulfonyl]-1-cyclohexene-1-carboxylate]
2 | disappeared | selectively bind to the 747th cysteine | – | – | – | – | – | CCOC(=O)C1=CCCCC1S(=O)(=O)Nc1ccc(F)cc1Br (stereo not shown) [compound C, ethyl 6-[N-(2-bromo-4-fluorophenyl)sulfamoyl]-1-cyclohexene-1-carboxylate]
3 | disappeared | selectively bind to the 747th cysteine | – | – | – | – | – | CCOC(=O)C1=CCCCC1S(=O)(=O)Nc1ccc(F)cc1F (stereo not drawn) [compound B, d-ethyl 6-[N-(2,4-difluorophenyl)sulfamoyl]-1-cyclohexene-1-carboxylate]
4 | disappeared | selectively bind to the 747th cysteine | remarkably decreased | selectively bound to the 747th cysteine | selectively bound | not bound | not bound | CCOC(=O)C1=CCCC[C@H]1S(=O)(=O)Nc1ccc(F)cc1Cl [compound A, ethyl (6R)-6-[N-(2-chloro-4-fluorophenyl)sulfamoyl]-1-cyclohexene-1-carboxylate]
